# Source: patent US10076576B2, “Minimally toxic prodrugs” (priority 2012, dated 2018)
# Like-named read-outs stand apart in the source and are kept apart here.
# Assays:
# [1] = test system: LS174T colon carcinoma human xenografts; experiment: Efficacy after repeated iv bolus, LS174T xenograft; conditions: for TGI [% (day)]: day 28
# Experimental: FIG. 2. Efficacy study of PhAc-ALGP-Dox in comparison with free Doxorubicin in NMRI nude mice bearing LS174T colon carcinoma human xenografts. Drugs or controls were administered by the i.v. route on day 0 and day 7. The mice receiving a constant volume (10 μL/g) of either saline (-●-;-◯-) or of the different dosing solutions: PhAc-ALGP-Dox 140 μmolKg (-▴-) and 160 μmol/kg (-×-); Dox 15 μmol/kg (-♦-). Results represent the mean body weight and tumor volume evolution±SEM (n=4).
# (§1) The anti-tumor activity of doxorubicin and PhAc-ALGP-Dox was tested in models of athymic mice (nude/nude NMRI) carrying ectopic xenografts of human LS-174T colon carcinoma or MX-1 mammary carcinoma.
# (§2) LS174T and MX-1 tumors were established by a subcutaneous implantation of cells (3×10^6 and 10^7 cells injected respectively) in the right flank of 6 weeks old female NMRI nude mice (Harlan). […] The day of the first injection animals were randomly assigned to groups of 4 animals. […] Compounds were delivered by bolus intravenous injection (i.v.) in the lateral tail vein at 10 μl/g. During the course of the experiment, clinical signs, body weight and tumor volume were controlled twice a week. Results are presented as the evolution of mean tumor volume as a function of time. Optimal T/C (ratio of mean tumor volume of treated versus control mice) values were used as a measure of treatment efficacy.
# [2] = test system: MX-1 mammary carcinoma human xenografts; experiment: Efficacy after repeated iv bolus, MX-1 xenograft; format: in vivo, NMRI nude mice; conditions: day 29
# Experimental: FIG. 3. […] Results represent the mean body weight and tumor volume evolution±SEM (n=4).
# as §1, §2
# [3] = test system: Cor.At® cells (mouse embryonic stem cell derived cardiomyocytes); experiment: In vitro cytotoxicity on Cor.At cardiomyocytes (neutral red uptake); format: cell-based; conditions: 48 h
# Experimental: FIG. 5. In vitro cellular toxicity of PhAc-ALGP-Dox and Doxorubicin on Cor.At® cells (mouse embryonic stem cell derived cardiomyocytes). As non-specific control, the test was also performed on inactivated mouse embryonic fibroblasts (MEF). Cells were cultured for 48 h in the presence of drugs and a neutral red uptake test was performed to determine cell viability. Results represent the cytotoxicity curves. The IC50 values were calculated from the cytotoxicity curves using the Prism GraphPad software 5.0.
# The in vitro cardiotoxicity test was carried out in a relevant and predictive in vitro model for cardiac safety screening in early lead optimization using mouse embryonic stem cell derived cardiomyocytes (Cor.At®, Axiogenesis (Germany)). Cor.At® cardiomyocytes provide a standardized, homogenous and reproducible cell system for the in vitro classification of a compound's cardio-cytotoxic potential. After incubation with test compounds, the neutral red uptake test was used to determine effects which directly affect the viability and integrity of cardiac cells when compared to a non-specific reference cell type, e.g. mouse fibroblasts (MEF).
# [4] = test system: B16-F10 murine melanoma cells; format: in vivo, C57BL6 mice
# Experimental: FIG. 11. Evaluation of PhAc-ALGP-Dox efficacy in comparison with Doxorubicin in the B16-F10 lung metastatic melanoma model. Graph on the left side represents quantification of melanin of lung metastasis at day 14 after injection of B16F10 tumor cells. Graph on the right side show the survival curves.
# The efficacy of PhAc-ALGP-Dox was tested in the well described B16-F10 lung metastatic melanoma model. For that purpose, […] B16-F10 murine melanoma cells were injected in the lateral vein of C57BL6 mice. Treatments started three days after cells injection. Animal received twice a day (at 5-6 h interval) for 5 consecutive days intraperitoneal injections (total 10 injections/mouse) of saline or of Doxorubicin at 2 and 3.5 μmol/kg or of PhAc-ALGP-Dox at 50 μmol/kg. Five mice per group were sacrificed at day 14 after cells injection. Lungs were collected and processed for melanin quantification (Molecular Pharmacology, 74: 1576-1586, 2008). Survival was determined by observation of the remaining mice.
# [5] = test system: UZLX-STS3 dedifferentiated liposarcoma xenograft
# Description: FIG. 16. Effect of PhAc-ALGP on a UZLX-STS3 xenograft model. UZLX-STS3 is a tissue xenograft derived from a patient diagnosed with dedifferentiated liposarcoma (DDLPS).
# A total of 24 mice were bilaterally transplanted with UZLX-STS3 (tissue xenografts of passage 10). Animals were randomly assigned to three different groups: a control group (saline; -●-); A PhAc-ALGP-doxorubicin group (cumulative dose 1.20 mmol/kg; -▪-) and a doxorubicin group (cumulative dose 0.03 mmol/kg; -▴-). The drugs were administered intraperitoneally during 7 days by continuous release via an Alzet® osmotic pump, with delivery rate of 0.5 μl/h over 7 days. The experiment lasted 21 days (7 days of treatment+14 days of observation). Tumor volume and mouse body weight were evaluated at baseline and subsequently three times per week until the end of each experiment. After 21 days mice were sacrificed. Tumor volume is recorded 3× weekly by 3-dimensional caliper measurement. Data are presented as the average of the relative tumor volumes per group±standard deviation.
# The comparison between the tumor volumes on day zero and the volumes on the last day of the experiments was done by Wilcoxon's matched paired test. The comparisons between different groups were performed using the Mann-Whitney U test (relative tumor volumes, histologic assessment). […] The […] software (StatSoft, version 12.0) was used for all the calculations.
# (§3) FIG. 18. Data are presented as the average of the white blood cell count of mice in every group±standard deviation. The dashed lines mark the reference values for nu/nu NMRI mouse strain. PhAc-ALGP-doxorubicin (-▪-); Dox (-▴-); and saline (-●-). Total white blood cell count was determined using the CELL-DYN 3500 multiparameter automated hematology analyzer with optimization for murine blood parameters (Abott Diagnostics, Division, Ill., USA)
# as §3, with “19.” for “18.”, “neutrophil” for “white blood cell”, “Neutrophil” for “Total white blood cell”
# [6] = Pharmacokinetics and heart quantification after single ip injection; conditions: for Dox concentration in heart after 24 h: ip 92 μmol/kg of the labelled drug, ± SD
# Experimental: Time evolution of blood concentration of PhAc-ALGP-Dox and its metabolites (A) or of Doxorubicin (B) after intraperitoneal injection to OF-1 female wild type mice at the equimolar dose of 92 μmol/kg. Results represent the mean concentration±SD (n=3).
# Pharmacokinetic tissue distribution studies were performed using OF-1 mice. Doxorubicin and PhAc-ALGP-Dox were dissolved in saline at the dose of 9.2 mM and administered to mice by intraperitoneal route (10 μL/g, 6 mice per group). At different time points after drug administration (5 min, 30 min, 1 h, 4 h, and 24 h), blood samples were collected from the lateral tail vein of three mice using EDTA-coated microtubes (Starsted). After 24 h, 3 mice per group were sacrificed by cervical dislocation and hearts were collected. They were incised and rinsed carefully in phosphate buffer saline (to eliminate blood in the cardiac cavities), dried on paper and frozen in liquid nitrogen. They were stored until analysis. The hearts were homogenized with an Ultraturrax homogenizer in 1.5 mL water. The protein concentration was measured using the microBCA protein assay (Pierce). The drug tissue quantification was made by HPLC after extraction: 150 μL of acetonitrile was added to the 50 μL samples. Samples were vortexed and centrifuged for 10 min at 13 000 rpm at room temperature. Supernatant was collected. Samples were buffered by addition of 200 mM formiate buffer pH 4.5 (1 V sample supernatant+3 V buffer) before HPLC analysis (fluo detection ex=235 nm em=560 nm).
# [7] = Pharmacokinetics and heart tissue quantification after single iv bolus
# Experimental: Time evolution of plasma concentration (A, B) and of cardiac tissue concentration (C, D) of Doxorubicin or PhAc-ALGP-Dox and its metabolites after i.v. bolus injection to OF-1 female wild type mice at the dose of 86.2 μmol/kg. Results represent the mean concentration±SD (n=3).
# Pharmacokinetic tissue distribution studies were performed using OF-1 mice. […] At different time points after drug administration (5 min, 30 min, 1 h, 4 h, 7 h, 16 h and 24 h) 3 mice per group were sacrificed by cervical dislocation and blood and heart tissue were collected. Hearts were incised and rinsed carefully in phosphate buffer saline (to eliminate blood in the cardiac cavities), dried on paper and frozen in liquid nitrogen. They were stored until analysis. Blood samples were centrifuged (10 min, 2000 g, 4° C.) to separate the plasma fraction, which was stored for analysis. The hearts were homogenized with an Ultraturrax homogenizer in 1.5 mL water. The protein concentration was measured using the microBCA protein assay (Pierce). The drug tissue quantification was made by HPLC after extraction: 150 μL of acetonitrile was added to the 50 μL samples. Samples were vortexed and centrifuged for 10 min at 13 000 rpm at room temperature. Supernatant was collected. Samples were buffered by addition of 200 mM formiate buffer pH 4.5 (1 V sample supernatant+3 V buffer) before HPLC analysis (fluo detection ex=235 nm em=560 nm).
structure (smiles),measurement,setting,value
"COc1cccc2c1C(=O)c1c(O)c3c(c(O)c1C2=O)C[C@@](O)(C(=O)CO)C[C@@H]3O[C@H]1C[C@H](N)[C@H](O)[C@H](C)O1 [Doxorubicin, reference compound]",TGI [% (day)],[1]; 15 μmol/kg iv day 0 and 7,55 (28) %
same,TGI [% (day)],"[2]; 8 μmol/kg iv day 0, 3, 6, 9",65 (29) %
same,viability of Cor.At cardiomyocytes,[3]; 0.2 μg/ml,67%
same,toxic effect on Cor.At cardiomyocytes (in words),[3]; 20 μg/ml and 2 μg/ml,severe toxic effect
same,median survival,[4]; 2 μmol/kg ip 2Q1D5,24 days
same,amount of melanin in lung homogenate,"[4]; 2 μmol/kg ip 2Q1D5, day 14",183 mg/mL
same,median survival,[4]; 3.5 μmol/kg ip 2Q1D5,28 days
same,amount of melanin in lung homogenate,"[4]; 3.5 μmol/kg ip 2Q1D5, day 14",53 mg/mL
same,relative tumor volume at day 21,"[5]; ip, 30 umol/kg",246%
same,percentage of the injected dose reaching the blood compartment in the first five minutes,[6]; ip 92 μmol/kg,about 2.5%
same,Dox concentration in heart after 24 h,[6],253 ± 60 pmol/mg protein
same,drug plasma concentration eliminated in the first five minutes,[7]; i.v. bolus 86.2 μmol/kg,About 90%
"COc1cccc2c1C(=O)c1c(O)c3c(c(O)c1C2=O)CC(O)(C(=O)CO)CC3OC1CC(NC(=O)C2CCCN2C(=O)CNC(=O)C(CC(C)C)NC(=O)C(C)NC(=O)CP(=O)(O)O)C(O)C(C)O1 (centres unmarked) [PhAc-ALGP-Dox, PhAc-ALGP-doxorubicin]",body weight loss (maximum),"[1]; 140 μmol/kg and 160 μmol/kg iv, twice",≤ 10%
same,TGI [% (day)],[1]; 140 μmol/kg iv day 0 and 7,79 (28) %
same,TGI [% (day)],[1]; 160 μmol/kg iv day 0 and 7,81 (28) %
same,TGI [% (day)],"[2]; 100 μmol/kg iv day 0, 3, 6, 9",60 (29) %
same,toxic effect (in words),[3]; all concentrations lower than 20 μg/ml,did not show any toxic effect
same,median survival,[4]; 50 μmol/kg ip 2Q1D5,36 days
same,amount of melanin in lung homogenate,"[4]; 50 μmol/kg ip 2Q1D5, day 14",16 mg/mL
same,neutrophil count (in words),[5]; 21 days after administration at 40-times higher dose than free doxorubicin,unchanged netrophil count
same,relative tumor volume at day 21,"[5]; cumulative dose 1.20 mmol/kg ip via osmotic pump over 7 days, day 0 = 100%",105%
same,total white blood cells and neutrophils (in words),"[5]; cumulative dose 1.20 mmol/kg, versus control or doxorubicin-treated animals",No major changes
same,percentage of the injected dose reaching the blood compartment in the first five minutes,[6]; ip 92 μmol/kg,about 1%
same,time after which the conjugate was no longer detected in blood,[6]; ip 92 μmol/kg,4 h
same,Doxorubicin cardiac accumulation versus Doxorubicin injection (times less),"[6]; ip 92 μmol/kg equimolar, 24 h",19 times
same,Dox concentration in heart after 24 h,[6],13 ± 3 pmol/mg protein
same,Dox heart AUC versus Dox administration (times lower),[7]; equimolar 86.2 μmol/kg iv,25 times
same,plasma AUC of Doxorubicin after Doxorubicin versus after PhAc-ALGP-Dox (times higher),[7]; equimolar 86.2 μmol/kg iv,63 times
same,drug plasma concentration eliminated in the first five minutes,[7]; i.v. bolus 86.2 μmol/kg,About 90%
same,"fraction hydrolysed into LGP-Dox, GP-Dox and Dox in plasma",[7]; i.v. bolus 86.2 μmol/kg,Less than 1%
same,time after which metabolites were no longer detected in plasma,[7]; i.v. bolus 86.2 μmol/kg,1 h
same,Heart AUC of PhAc-ALGP-Dox,[7]; one i.v. bolus 86.2 μmol/kg,23 pmol · h/mg protein
